These results are taken from patent US7189851B2, “Condensed heterocyclic compounds as calcitonin agonists” (SmithKline Beecham Corporation, priority 2002, dated 2007).

Where only a bound is given, the exact number is not on record here.

One test concerns Thyroid-parathyroidectomized (TPTX) rats. The experiment in a line: Rat TPTX assay in vivo (PTH-induced elevation of serum calcium). The following applies: 16 units/kg SC, TPTX rats. The text has this:
Thyroid-parathyroidectomized (TPTX) rats were used to determine the effects of compounds on PTH-induced elevation of serum calcium in vivo. The thyroid and parathyroid glands of male CD rats were removed under anesthesia and subcutaneous pumps containing human parathyroid hormone (hPTH 1–34) were implanted two to five days after TPTX. […] PTH was delivered at a rate of 30 micrograms/kg/hour. PTH causes significant elevations of serum calcium in TPTX rats given no other treatments. Rats were treated with vehicle, test compounds at various doses or calcitonin 16 units/kg SC. […] Serurn calcium was measured at baseline and every two hours up to six hours. Averaged group responses at each time point were compared using Analysis of Variance (ANOVA).
As to calcitonin [reference compound], the “suppression of PTH-induced hypercalcemia” value was “maximal suppression”.

In a further test the target is T1, human calcitonin-2 receptor (hCT2R) (Homo sapiens, UniProt P30988).
T1 construct: expressed in transfected cells; host or cells: Chinese hamster ovary (CHO) cells co-transfected with a 6CRE-luciferase reporter; receptor cDNA cloned from the MCF7 cell line
T1 sequence (P30988 25-474): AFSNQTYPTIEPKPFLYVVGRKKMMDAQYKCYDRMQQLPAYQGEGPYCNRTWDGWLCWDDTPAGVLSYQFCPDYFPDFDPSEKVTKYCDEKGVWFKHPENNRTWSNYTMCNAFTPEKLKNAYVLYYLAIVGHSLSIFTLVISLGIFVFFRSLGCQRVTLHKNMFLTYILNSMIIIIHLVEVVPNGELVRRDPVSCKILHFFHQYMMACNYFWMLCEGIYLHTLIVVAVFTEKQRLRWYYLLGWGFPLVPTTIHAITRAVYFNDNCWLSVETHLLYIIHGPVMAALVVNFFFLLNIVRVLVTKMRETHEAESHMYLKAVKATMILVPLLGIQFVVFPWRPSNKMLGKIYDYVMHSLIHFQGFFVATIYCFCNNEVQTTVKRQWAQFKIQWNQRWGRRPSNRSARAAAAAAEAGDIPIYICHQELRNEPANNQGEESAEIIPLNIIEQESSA
The experiment in a line: HCT2R CRE-luc reporter assay. The test is classed as cell-based. The following applies: agonist activity; CHO-6CRE-luciferase cells co-transfected with hCT2R. How it is done:
The compounds of the present invention elicit important and measurable pharmacological responses. As is to be expected, the efficacy of any compound will vary depending upon the particular assay and the particular compound tested.
All recombinant cell line human calcitonin receptor assays were carried out with the human receptor corresponding to GeneBank Accession Number X69920, [See: Molecular Pharmacology 46 (2):246–255, 1994, Cloning and characterization of an abundant subtype of the human calcitonin receptor] cloned from the MCF7 cell line (American Type Tissue Collection, Manassas, Va., USA, Catalog # HTB-22). Human calcitonin receptor (hCT2R) was cloned as a HindIII fragment into plasmid BS SKII. Chinese hamster ovary cells were co-transfected with a 6CRE-luciferase reporter system and hCTR2. HEK cells were transfected with hCTR2.
CHO-6CRE-luciferase cells with or without co-expressed hCTR2 were grown in suspension in commercially available cell culture medium supplemented with 2 mM L-glutamine and 5% fetal bovine serum (FBS). Sixteen hours before each assay, cells were collected and resuspended at 1,000,000 cells/ml in media without FBS. Cells were cultured in spinner flasks at 37° C. in an atmosphere of 5% CO2. At the time of the assay, cells were pelleted by centrifugation and resuspended in media without FBS at a concentration of 250,000 cells/ml. The cell suspension was pipetted into black 96-well microtiter plates (25,000 cells/well) containing test compounds. After a four-hour incubation at 37° C., media was aspirated, followed by addition of 50 microliters of LucLite and PBS (1:1) containing 1 mM CaCl2 and 1 mM MgCl2. The plates were sealed and incubated for 20 minutes in the dark. Luminescent responses were measured using a Packard TopCount.
Structure activity studies were performed on CHO-6CRE-luciferase cells with or without co-transfected hCT2R. Forty-eight hours before each assay, cells were removed with trypsin and plated in 96-well microtiter plates at a concentration of 25–100,000 cells/well. Sixteen hours before each assay, FBS-containing media was removed and replaced with media without FBS. Compounds were added and incubated for four hours at 37° C. After incubation, media was aspirated and 50 microliters of LucLite in PBS (1:1) containing 1 mM CaCl2 and 1 mM MgCl2 were added to each well. Plates were sealed and incubated for 20 minutes in the dark before quantification of luminescence on a Packard TopCount.
Concentration-response curves were calculated and potencies were reported as the concentration of compounds producing half-maximal responses (EC50) or the negative log of the concentration of compounds producing half-maximal responses (pEC50).
Turning to `CCOC(=O)c1c(Cc2ccsc2)nc2c(c1-c1ccc(C(=O)NCc3ccco3)cc1)C(=O)N1CCCC21` [Example 51, Ethyl (9aS)-4-(4-{[(2-furylmethyl)amino]carbonyl}phenyl)-5-oxo-2-(3-thienylmethyl)-7,8,9,9a-tetrahydro-5H-pyrido[2,3-α]pyrrolizine-3-carboxylate], the EC50 (commonly the concentration needed to bring the measured effect to its halfway point) was 0.1 to 1 µM.
Regarding `O=C(NCc1ccco1)c1ccc(-c2c(NC(=O)C(F)(F)F)c(CCc3ccc(C(F)(F)F)cc3)nc3c2C(=O)N2CCC[C@@H]32)cc1` [Example 27, 4-((9aS)-3-[(Trifluoromethylcarbonyl)amino]-5-oxo-2-{2-[4-(trifluoromethyl)phenyl]ethyl}-7,8,9,9a-tetrahydro-5H-pyrido[2,3-α]pyrrolizin-4-yl)-N-(2-furylmethyl)benzamide], the EC50 was in the range of 0.1 to 1 µM.
As to `CCOC(=O)c1c(CCc2ccc(F)cc2)nc2c(c1-c1ccc(C)cc1)C(=O)N1CCC[C@@H]21` [Example 40, Ethyl (9aS)-2-[2-(4-fluorophenyl)ethyl]-4-(4-methylphenyl)-5-oxo-7,8,9,9a-tetrahydro-5H-pyrido[2,3-α]pyrrolizine-3-carboxylate], the EC50 was in the range of 0.1 to 1 µM.
Regarding `CCOC(=O)c1c(CCc2ccc(F)cc2)nc2c(c1-c1ccc(C(=O)N[C@@H]3CCc4ccccc43)s1)C(=O)N1CCC[C@@H]21` [Example 18, Ethyl(9aS)-4-(5-{[(1R)-2,3-dihydro-1H-inden-1-ylamino]carbonyl}-2-thienyl)-2-[2-(4-fluorophenyl)ethyl]-5-oxo-7,8,9,9a-tetrahydro-5H-pyrido[2,3-a]pyrrolizine-3-carboxylate], the EC50 was no more than 0.01 µM.
Still for that read-out and setting: for `O=C(NCc1ccco1)c1ccc(-c2c(NC(=O)C3CCCC3)c(CCc3ccc(C(F)(F)F)cc3)nc3c2C(=O)N2CCC[C@@H]32)cc1` [Example 24, 4-((9aS)-3-[(Cyclopentylcarbonyl)amino]-5-oxo-2-{2-[4-(trifluoromethyl)phenyl]ethyl}-7,8,9,9a-tetrahydro-5H-pyrido[2,3-a]pyrrolizin-4-yl)-N-(2-furylmethyl)benzamide] the value was 0.1 to 1 µM; for `CCOC(=O)c1c(CCc2ccc(F)cc2)nc2c(c1-c1ccc(C(=O)NCc3ccco3)s1)c(=O)n1n2CCC1` [Example 9, Ethyl 2-[2-(4-fluorophenyl)ethyl]-4-(5-{[(2-furylmethyl)amino]carbonyl}-2-thienyl)-5-oxo-8,9-dihydro-5H,7H-pyrazolo[1′,2′:1,2]pyrazolo[3,4-b]pyridine-3-carboxyl], no more than 0.01 µM.
For `O=C(N[C@@H]1CCc2ccccc21)c1ccc2c(c1)[nH]c(=O)c1c(CCc3ccc(F)cc3)nc3c(c12)C(=O)N1CCC[C@@H]31` [Example 59, (8bS)-N-[(1R)-2,3-dihydro-1H-inden-1-yl]-7-[2-(4-fluorophenyl)ethyl]-6,13-dioxo-5,8b,9,10,11,13-hexahydro-6H-benzo[c]pyrrolizino[2,1-f][2,7]naphthyridine-3-carboxamide], the EC50 was no more than 0.01 µM.
Still for that read-out and setting: for `CCOC(=O)c1c(CCc2ccc(C(F)(F)F)cc2)nc2c(c1-c1ccc(CC(=O)NCc3ccco3)cc1)C(=O)N1CCC[C@@H]21` [Example 37, Ethyl (9aS)-4-(4-{2-[(2-furylmethyl)amino]-2-oxoethyl}phenyl)-5-oxo-2-{2-[4-(trifluoromethyl)phenyl]ethyl}-7,8,9,9a-tetrahydro-5H-pyrido[2,3-α]pyrrolizine-3-carboxylate] the value was 0.1 to 1 µM; for `Cc1nc2c(c(-c3ccc(C(=O)NCc4ccco4)cc3)c1C(=O)CCc1ccc(F)cc1)C(=O)N1CCC[C@@H]21` [Example 30, 4-{(9aS)-3-[3-(4-fluorophenyl)propanoyl]-2-methyl-5-oxo-7,8,9,9a-tetrahydro-5H-pyrido[2,3-α]pyrrolizin-4-yl}-N-(2-furylmethyl)benzamide], 0.1 to 1 µM; for “Ethyl(9aS)-4-[3-({[2-(2-furyl)ethyl]amino}carbonyl)phenyl]-5-oxo-2-{2-[4-(trifluoromethyl)phenyl]ethyl}-7,8,9,9a-tetrahydro-5H-pyrido[2,3-a]pyrrolizine-3-carboxylate [Example 13]”, no less than 1 µM.
Consider `CCOC(=O)c1c(Cc2ccc(F)cc2)nc2c(c1-c1ncc(C(=O)N[C@@H]3CCc4ccccc43)s1)C(=O)N1CCC[C@@H]21` [Example 19, Ethyl (9aS)-4-(5-{[(1R)-2,3-dihydro-1H-inden-1-ylamino]carbonyl}-1,3-thiazol-2-yl)-2-(4-fluorobenzyl)-5-oxo-7,8,9,9a-tetrahydro-5H-pyrido[2,3-a]pyrrolizine-3-carboxylate], for which the EC50 is no more than 0.01 µM.
Take `CCOC(=O)c1c(CCc2ccc(C(F)(F)F)cc2)nc2c(c1-c1ccc(C(=O)NCCCn3ccnc3)cc1)C(=O)N1CCC[C@@H]21` [Example 41, Ethyl (9aS)-4-[4-({[3-(1H-imidazol-1-yl)propyl]amino}carbonyl)phenyl]-5-oxo-2-{2-[4-(trifluoromethyl)phenyl]ethyl}-7,8,9,9a-tetrahydro-5H-pyrido[2,3-α]pyrrolizine-3-carboxylate]: the EC50 lay in the range of 0.1 to 1 µM.
`O=C(NCc1ccco1)c1ccc(-c2cc(CCc3ccc(C(F)(F)F)cc3)nc3c2C(=O)N2CCC[C@@H]32)cc1` [Example 14, 4-((9aS)-5-oxo-2-{2-[4-(trifluromethyl)phenyl]ethyl}-7,8,9,9a-tetrahydro-5H-pyrido[2,3-a]pyrrolizin-4-yl)-N-(2-furylmethyl)benzamide]: the EC50 is 0.1 to 1 µM.
Still for that read-out and setting: for `CCOC(=O)c1c(CCc2ccc(F)cc2)nc2c(c1-c1ccc(C(=O)NCc3ccco3)cc1)c(=O)n1n2CCC1` [Example 8, Ethyl 2-[2-(4-fluorophenyl)ethyl]-4-(4-{[(2-furylmethyl)amino]carbonyl}phenyl)-5-oxo-8,9-dihydro-5H,7H-pyrazolo[1′,2′:1,2]pyrazolo[3,4-b]pyridine-3-carboxylate] the value was no more than 0.01 µM.
Still for that read-out and setting: for `O=C(NC1CCc2ccccc21)c1ccc(-c2c(NC(=O)C(F)(F)F)c(Cc3ccc(F)cc3F)nc3c2C(=O)N2CCCC32)cc1` [Example 23, 4-{(9aS)-2-(2,4-difluorobenzyl)-5-oxo-3-[(trifluoroacetyl)amino]-7,8,9,9a-tetrahydro-5H-pyrido[2,3-α]pyrrolizin-4-yl}-N-[(1R)-2,3-dihydro-1H-inden-1-yl]benzamide] the value was 0.01 to 0.1 µM; for `O=C(N[C@@H]1CCc2ccccc21)c1ccc(-c2cc(Cc3ccc(F)cc3)nc3c2C(=O)N2CCC[C@@H]32)cc1` [Example 20, 4-[(9aS)-2-(4-fluorobenzyl)-5-oxo-7,8,9,9a-tetrahydro-5H-pyrido[2,3-a]pyrrolizin-4-yl]-N-[(1R)-2,3-dihdro-1H-inden-1-yl]benzamide], 0.01 to 0.1 µM.
